Earlier results, collected in PMC7992120 (Nature chemical biology, 2018).

How the values were obtained:
[1] = system: human bradykinin 1 receptor (B1R); conditions: for affinity for B1R of peptides lacking N-terminal lysine (in words): no reference at the sentence (Fig. 1)
[2] = system: human bradykinin 2 receptor (B2R); conditions: for affinity for B2R (in words): agonist
[3] = system: B2R, "these residues" replaced by alanine or positively charged amino acids; conditions: replacement by alanine or positively charged amino acids
[4] = system: dog B1R; conditions: D^7.29 replaced by Asn

| Substance | affinity for B2R, Figure 1 legend (in words) [2] | affinity for B2R (in words) [2] | affinity for B1R of peptides lacking N-terminal lysine (in words) ([1]; human B1R) | further results |
| --- | --- | --- | --- | --- |
| KRPPGFSPL [DALK] | – | – | – | B1R antagonism / affinity (in words) ([1]; B1R antagonist): high-affinity antagonist for B1R |
| bradykinin (RPPGFSPFR; Bradykinin; UniProt P01042 381-389, looked up) [BK] | high-affinity ligands for B2R | high-affinity agonists | rather low affinity to the B1R | BK binding of mutant (in words) [3]: substantially impairs BK binding in B2R |
| desArg^9-bradykinin [DABK] | – | – | rather low affinity to the B1R | affinity for B2R of desArg peptides (in words) [2]: only weak binding affinity to the B2R; affinity for B1R, Figure 1 legend (in words) ([1]; human B1R): not DABK, binds with high affinity to B1R; selectivity between DAKD and DABK (in words) [4]: no significant selectivity between DAKD and DABK |
| kallidin [KD] | high-affinity ligands for B2R | high-affinity agonists | – | – |
